Test results as given in article PMC6152127, “Facile Synthesis of Novel Coumarin Derivatives, Antimicrobial Analysis, Enzyme Assay, Docking Study, ADMET Prediction and Toxicity Study” (Molecules : A Journal of Synthetic Chemistry and Natural …, 2017).
Values after ≈ are worked out from the molar mass of the structure shown.

Assays:
[1] = test system: Aspergillus niger (NCIM-1196); assay: In vitro antifungal activity, MIC, agar method (CLSI); assay type: cell-based; settings: NCIM1196, average of three readings
Procedure: (§1) The newly synthesized 3-((dicyclohexylamino)(substituted phenyl/heteryl)methyl)-4-hydroxy-2H-chromen-2-one derivatives 4a–o were screened for their in vitro antifungal activity against different yeast and filamentous fungal pathogens. […] Dimethyl sulfoxide (DMSO) was used as solvent control.
(§2) All the synthesized compounds were screened for their in vitro antifungal and antibacterial activity. The antibacterial activity was evaluated against three human pathogenic bacterial strains: Escherichia coli (NCIM-2256), Bacillus subtilis (NCIM-2063) and Staphylococcus aureus (NCIM-2901). The antifungal activity was evaluated against seven human pathogenic fungal strains: Candida albicans (NCIM-3471), Candida glabrata (NCYC-388), Fusarium oxysporum (NCIM-1332), Aspergillus fumigates (NCIM-902), Aspergillus flavus (NCIM-539), Aspergillus niger (NCIM-1196) and Cryptococcus neoformans (NCIM-576), which are often encountered clinically. […] Minimum inhibitory concentration (MIC) values were determined as per CLSI guidelines. Dimethyl sulfoxide (DMSO) was used as solvent control.
(§3) Antifungal activity was determined as per CLSI (formerly, NCCLS) guidelines. […] The medium yeast nitrogen base was dissolved in phosphate buffer pH 7 and it was autoclaved at 110 °C for 10 min. With each set a growth control without the antifungal agent and solvent control DMSO were included. The fungal strains were freshly sub cultured on to Sabouraud dextrose agar (SDA) and incubated at 25 °C for 72 h. The fungal cells were suspended in sterile distilled water and diluted to get 10^5 cells/mL. Ten μL of the standardized suspension was inoculated onto the control plates and the media incorporated with the antifungal agents. The inoculated plates were incubated at 25 °C for 48 h. The readings were taken at the end of 48 h and 72 h. The MIC was the lowest concentration of drug preventing growth of macroscopically visible colonies on drug containing plates when there was visible growth on the drug free control plates.

[2] = test system: Aspergillus flavus (NCIM-539); assay: as above; assay type: cell-based; settings: NCIM539, average of three readings
Procedure: as §1, §2, §3

[3] = test system: Fusarium oxysporum (NCIM-1332); assay: as above; assay type: cell-based; settings: NCIM1332, average of three readings
Procedure: as §1, §2, §3

[4] = test system: Cryptococcus neoformans (NCIM-576); assay: as above; assay type: cell-based; settings: NCIM576, average of three readings
Procedure: as §1, §2, §3

[5] = test system: Aspergillus fumigates (NCIM-902); assay: as above; assay type: cell-based; settings: NCIM902, average of three readings
Procedure: as §1, §2, §3

[6] = test system: Candida glabrata (NCYC-388); assay: as above; assay type: cell-based; settings: Nakaseomyces glabratus; average of three readings
Procedure: as §1, §2, §3

[7] = test system: Candida albicans (NCIM-3471); assay: as above; assay type: cell-based; settings: NCIM3471, average of three readings
Procedure: as §1, §2, §3

Swiss albino mice = assay: In vivo acute oral toxicity study and behavioral study (OECD guideline no. 425); set-up: key to Straub Tail / Pilo Erection / Convulsions / Normal Motor Activity / Stereotypy / Tremors / Sedation / Hypnosis / Muscle Spasms / Toxicity / Deaths / Eye Lacrimation / Salivation / Diarrhea / Respiration Problems: N: no; Y: yes
Procedure: In vivo acute oral toxicity study and gross behavioral studies of the newly synthesized compounds 4e and 4k is shown in Table 5.
425 using Swiss albino mice (18–22 gm weight) quarantined at animal house at Y.B. Chavan College of Pharmacy, Aurangabad IAEC approval number CPCSEA/IAEC/P’col-52/2015-16/115. Each group consists of six mice (overnight fasted) and kept in colony cage at 25 ± 2 °C with 55% relative humidity and 12 h of light and dark cycle. A specified dose of 100, 250, 500, 750, 1000, 1500 and 2000 mg/kg body weight of mice was administered orally as a single dose. The acute toxic symptoms and the behavioral changes produced by the synthesized compounds were observed continuously for 4 h periods at 8th, 12th and 24th h on set of toxic symptoms and the gross behavioral changes were also recorded. These animals were maintained for further 10 days with observation made daily.

[8] = test system: Bacillus subtilis (NCIM-2063); assay: In vitro antibacterial activity, MIC; assay type: cell-based; settings: Bacillus subtilis, NCIM2063; average of three readings
Procedure: (§4) The newly synthesized compounds 4a–o were screened for their in vitro antibacterial activity against the three different bacterial strains. Minimum inhibitory concentration (MIC) values for antibacterial activity were determined by standard agar method using Ampicillin as standard drug. Dimethyl sulfoxide (DMSO) was used as solvent control. […] Compound 4e bearing a 2,4-difluoro group on the phenyl ring was 48 µg/mL for E. coli, 50 µg/mL for B. subtilis and 52 µg/mL for S. aureus.
(§5) All the synthesized compounds were screened for their in vitro antifungal and antibacterial activity. The antibacterial activity was evaluated against three human pathogenic bacterial strains: Escherichia coli (NCIM-2256), Bacillus subtilis (NCIM-2063) and Staphylococcus aureus (NCIM-2901). The antifungal activity was evaluated against seven human pathogenic fungal strains: Candida albicans (NCIM-3471), Candida glabrata (NCYC-388), Fusarium oxysporum (NCIM-1332), Aspergillus fumigates (NCIM-902), Aspergillus flavus (NCIM-539), Aspergillus niger (NCIM-1196) and Cryptococcus neoformans (NCIM-576), which are often encountered clinically. Miconazole was used as standard drug. Minimum inhibitory concentration (MIC) values were determined as per CLSI guidelines. Dimethyl sulfoxide (DMSO) was used as solvent control.
(§6) All the synthesized compounds 4a–o were screened for their in vitro antibacterial activity. Minimum inhibitory concentration (MIC) values were determined using method recommended by National Committee for Clinical Laboratory Standards (NCCLS). In vitro antibacterial activities of the synthesized compounds 4a–o were tested in Nutrient Broth (NB) for bacteria by the two fold serial dilution method. Seeded broth (broth containing microbial spores) was prepared in NB from 24 h old bacterial cultures on nutrient agar (Hi-media) at 37± 1 °C. The bacterial suspension was adjusted with sterile saline to a concentration of 1× 10^−4–10^−5 C.F.U. The synthesized compounds and standard drug Ampicillin were prepared by two fold serial dilutions to obtain the required concentrations of 400, 200, 100, 50, 25, 12.5, 6.25 and 3.13 μg/mL. The tubes were incubated in BOD incubators at 37± 1 °C for bacteria. The MICs were recorded by visual observations after 24 h (for bacteria) of incubation.

[9] = test system: Escherichia coli (NCIM-2256); assay: In vitro antibacterial activity, MIC; assay type: cell-based; settings: Escherichia coli, NCIM2256; average of three readings
Procedure: as §4, §5, §6

[10] = test system: Staphylococcus aureus (NCIM-2901); assay: In vitro antibacterial activity, MIC; assay type: cell-based; settings: Staphylococcus aureus, NCIM2901; average of three readings
Procedure: as §4, §5, §6

[11] = test system: ergosterol biosynthesis in C. albicans; assay: Ergosterol extraction and quantitation assay; assay type: cell-based, Candida albicans (NCIM-3471); settings: at the MIC value (25 µg/mL), C. albicans NCIM3471
Procedure: A single Candida albicans (NCIM-3471) colony from an overnight Sabouraud dextrose agar plate culture was used to inoculate 50 mL of Sabouraud dextrose broth for control and for various concentrations of the molecules. […] The net weight of the cell pellet was determined. […] Cell suspensions were transferred to sterile borosilicate glass screw-cap tubes and were incubated in an 85 °C water bath for one hour. Following incubation, the tubes were allowed to cool. […] The heptane layer was transferred to a clean borosilicate glass screw-cap tube and stored at −20 °C. […] The absence of detectable ergosterol in extracts was indicated by a flat line.

[12] = test system: HeLa (Human cervical cancer cell line); assay: In vitro cytotoxicity, Sulforhodamine B (SRB) assay; assay type: cell-based
Procedure: To examine the safety of the synthesized compounds, the compounds 4e and 4k were evaluated for their toxicity against the HeLa human cervical cancer cell line by a Sulforhodamine B (SRB) assay using Adriamycin as a standard drug.
In vitro cytotoxicity study of the synthesized compounds 4e and 4k was performed against HeLa (Human cervical cancer cell line) by Sulforhodamine B (SRB) assay using Adriamycin as positive control. The images were captured using an Eclipse Ti-S Inverted Research Microscope (Nikon, Tokyo, Japan). Image processing software used was NIS-Elements.

[13] = Swiss albino mice, single oral dose 100–2000 mg/kg

COc1cc(C(c2c(O)c3ccccc3oc2=O)N(C2CCCCC2)C2CCCCC2)ccc1O (centres unmarked) [Compound 4k, 3-((Dicyclohexylamino)(4-hydroxy-3-methoxyphenyl)methyl)-4-hydroxy-2H-chromen-2-one]
MIC [1]: 15 µg/mL (≈ 31.4 µM) | MIC [2]: 12 µg/mL (≈ 25.1 µM) | MIC [3]: 28 µg/mL (≈ 58.6 µM) | MIC [4]: 15 µg/mL (≈ 31.4 µM) | MIC [5]: 38 µg/mL (≈ 79.6 µM) | MIC [6]: 30 µg/mL (≈ 62.8 µM) | MIC [7]: 25 µg/mL (≈ 52.3 µM) | Convulsions (Swiss albino mice; [13]): N | Deaths (Swiss albino mice; [13]): N | Diarrhea (Swiss albino mice; [13]): N | Eye Lacrimation (Swiss albino mice; [13]): N | Hypnosis (Swiss albino mice; [13]): N | Muscle Spasms (Swiss albino mice; [13]): N | Normal Motor Activity (Swiss albino mice; [13]): Y | Pilo Erection (Swiss albino mice; [13]): N | Respiration Problems (Swiss albino mice; [13]): N | Salivation (Swiss albino mice; [13]): N | Sedation (Swiss albino mice; [13]): N | Stereotypy (Swiss albino mice; [13]): N | Straub Tail (Swiss albino mice; [13]): N | Toxicity (Swiss albino mice; [13]): N | Tremors (Swiss albino mice; [13]): N | lethal dose (Swiss albino mice; oral, mice, body weight, no mortality up to 2000 mg/kg): above 2000 mg/kg | MIC [8]: 55 µg/mL (≈ 115 µM) | MIC [9]: 55 µg/mL (≈ 115 µM) | MIC [10]: 54 µg/mL (≈ 113 µM) | UV sterol profile, ergosterol peak at 281.5 nm [11]: almost a flat curve | GI50 ([12]; Homo sapiens, HeLa, SRB assay, concentration range 50 to 0.78 μg/mL): > 50 µg/mL | cell inhibition HeLa ([12]; up to 50 µg/mL concentration, Figure 4): did not take place
